Results as given in ChEMBL document CHEMBL5032503 (J Med Chem, 2021).
Active and inactive are the calls of the source. The rule behind the calls is not given here.

Assays:
[1] = test system: T98G; test: Effect on TLX regulated gene expression in human T98G cells assessed as decrease in TET3 mRNA expression at 50 uM after 8 hrs by qRT-PCR analysis; assay type: functional, cell-based
[2] = test system: T98G; test: Inhibition of cell migration in human T98G cells at 75 uM incubated for 24 hrs by crystal violet staining based by Boyden chamber method; assay type: functional
[3] = target: T1, Nuclear receptor subfamily 2 group E member 1 (Homo sapiens, UniProt Q9Y466); test: Agonist activity at in human TLX LBD expressed in human HEK293T cells coexpressing Gal4-VP 16 assessed as increase in reporter activity measured after 14 hrs by luciferase reporter gene assay relative to control; assay type: cell-based
[4] = test system: T98G; test: Induction of apoptosis in human T98G cells assessed as viable cells at 100 nM measured after 72 hrs by propidium iodide staining based flow cytometry; assay type: functional, cell-based
[5] = test system: T98G; test: Effect on TLX regulated gene expression in human T98G cells assessed as induction of SIRT1 mRNA expression at 50 uM after 8 hrs by qRT-PCR analysis; assay type: functional, cell-based
[6] = test system: T98G; test: Effect on TLX regulated gene expression in human T98G cells assessed as induction of mRNA expression at 50 uM after 8 hrs by qRT-PCR analysis; assay type: functional, cell-based
[7] = test system: T98G; test: Cytotoxicity against human T98G cells assessed as cell viability by WST-1 assay; assay type: functional, cell-based
[8] = test system: T98G; test: Effect on TLX regulated gene expression in human T98G cells assessed as decrease in PTEN mRNA expression at 50 uM after 8 hrs by qRT-PCR analysis; assay type: functional, cell-based
[9] = target: T1, Nuclear receptor subfamily 2 group E member 1; test: Agonist activity at full length TLX activating element expressed in human HEK293T cells coexpressing human full-length TLX/Gal4-VP 16 assessed as fold increase in reporter activity at 100 uM by luciferase reporter gene assay relative to control; assay type: cell-based; conditions: filed as agonist
[10] = target: T1, Nuclear receptor subfamily 2 group E member 1; test: Stabilization of human recombinant TLX LBD assessed as change in melting temperature at 500 uM by DSF assay
[11] = target: T1, Nuclear receptor subfamily 2 group E member 1; test: Agonist activity at in human TLX LBD expressed in human HEK293T cells coexpressing Gal4-VP 16 assessed as fold […] in reporter activity at 100 uM measured after 14 hrs by luciferase reporter gene assay relative to control; assay type: cell-based; conditions: filed as agonist
[12] = target: T1, Nuclear receptor subfamily 2 group E member 1; test: Inverse agonist activity at full length TLX activating element expressed in human HEK293T cells coexpressing human full-length TLX/Gal4-VP 16 assessed as fold […] in reporter activity at 100 uM by luciferase reporter gene assay relative to control; assay type: cell-based; conditions: filed as inverse agonist
[13] = target: T1, Nuclear receptor subfamily 2 group E member 1; test: Inverse agonist activity at in human TLX LBD expressed in human HEK293T cells coexpressing Gal4-VP 16 assessed as fold increase in reporter activity at 100 uM measured after 14 hrs by luciferase reporter gene assay relative to control; assay type: cell-based; conditions: filed as inverse agonist
[14] = target: T1, Nuclear receptor subfamily 2 group E member 1; test: Agonist activity at in human TLX LBD expressed in human HEK293T cells coexpressing Gal4-VP 16 assessed as remaining activity measured after 14 hrs by luciferase reporter gene assay relative to control; assay type: cell-based; conditions: filed as agonist
[15] = Effect on Gal4-VP16 plasmid transfected in human HEK293T cells assessed as reporter activity incubated for 14 hrs by luciferase assay; assay type: functional, HEK-293T
[16] = target: T1, Nuclear receptor subfamily 2 group E member 1; test: Agonist activity at TAE expressed in human HEK293T cells coexpressing human full-length TLX/Gal4-VP 16 assessed as renilla luciferase reporter activity incubated for 14 hrs by Dual-glo luciferase
[17] = target: T1, Nuclear receptor subfamily 2 group E member 1; test: Agonist activity at full length TLX activating element expressed in human HEK293T cells coexpressing human full-length TLX/Gal4-VP 16 assessed as decrease in reporter activity at 100 uM by luciferase reporter gene assay relative to control
[18] = target: T1, Nuclear receptor subfamily 2 group E member 1
Description: Binding affinity to TLX LBD expressed in His6-tagged Escherichia coli Rosetta assessed as binding constant measured after 300 sec at 200 mM by isothermal titration calorimetry

[19] = target: T1, Nuclear receptor subfamily 2 group E member 1; test: Agonist activity at human TLX LBD expressed in human HEK293T cells coexpressing Gal4-VP 16 incubated for 14 hrs at 100 uM; assay type: cell-based
[20] = target: T1, Nuclear receptor subfamily 2 group E member 1; test: Agonist activity at human TLX LBD expressed in human HEK293T cells coexpressing Gal4-VP 16 incubated for 14 hrs at 300 uM; assay type: cell-based

T1 sequence (Q9Y466 whole entry, the tested form may be a part): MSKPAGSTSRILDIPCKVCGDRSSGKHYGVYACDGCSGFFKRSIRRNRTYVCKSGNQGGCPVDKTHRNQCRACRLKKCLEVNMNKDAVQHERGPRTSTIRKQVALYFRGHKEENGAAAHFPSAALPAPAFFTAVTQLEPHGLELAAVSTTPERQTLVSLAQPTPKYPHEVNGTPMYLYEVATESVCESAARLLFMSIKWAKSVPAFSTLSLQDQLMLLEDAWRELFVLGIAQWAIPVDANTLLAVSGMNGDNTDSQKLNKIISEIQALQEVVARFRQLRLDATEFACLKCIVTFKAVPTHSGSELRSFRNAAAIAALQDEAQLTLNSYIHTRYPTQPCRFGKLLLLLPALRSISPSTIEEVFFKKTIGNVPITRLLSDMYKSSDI

With `CC(C)NCC(O)COc1ccc(CC(N)=O)cc1` (racemic) [ATENOLOL] the Activity [1] was “inactive”, the “cell migration inhibition (active/not active call)” value [2] was “inactive” and the EC50 ([3]; hek293t) was “Not Active”. The Activity [4] was “inactive”, the Activity [5] was “inactive” and the Activity [6] was “inactive”. The Activity [7] was “Active” and the Activity [8] was “inactive”.

`Cc1cn(-c2cc(N)cc(C(F)(F)F)c2)cn1` gave a fold change (FC) [9] of 0.65, a ΔTm [10] of -3.2 °C and a fold change (FC) [11] of 0.44.

`Nc1cnc2ccccc2n1` gave a ΔTm ([10]; filed as modulator) of 1.2 °C, a fold change (FC) [12] of 1.8 and a fold change (FC) [11] of 2.9.

For `CC(C)NCC(O)c1ccc(NS(C)(=O)=O)cc1` (racemic) [SOTALOL], the “cell migration inhibition (active/not active call)” value [2] was “inactive”, the EC50 ([3]; hek293t) was “Not Active” and the Activity [4] was “inactive”. The Activity [7] was “Active”.

Compound `CNC(=O)c1cc(Cl)c(N)cc1OC` has a ΔTm [10] of -0.3 °C, a fold change (FC) [12] of 1.05 and a fold change (FC) [11] of 0.46.

`CCCCOc1cc(C(=O)NC)c2ccccc2n1` showed a fold change (FC) [9] of 0.68, a ΔTm [10] of 1.1 °C and a fold change (FC) [11] of 32.

`COc1ccc2[nH]c(SC)nc2c1` showed a ΔTm ([10]; filed as modulator) of 0.5 °C, a fold change (FC) [12] of 1.33 and a fold change (FC) [13] of 2.7. It also gave a fold change (FC) [11] of 2.7.

`CC(C)NC[C@H](O)COc1cccc2ccccc12` [LEVOPROPRANOLOL] gave an EC50 ([3]; read-out: EC50) of 72 µM and a fold change (FC) [14] of 0.25.

Compound `COC(CNC(C)C)COc1cccc2ccccc12` (centres undefined) has an EC50 ([3]; read-out: EC50) of 52 µM and a fold change (FC) [14] of 0.28.

Compound `O=c1[nH]nc(Cc2ccccc2)c2ccccc12` has a fold change (FC) [9] of 0.57, a ΔTm [10] of -0.5 °C and a fold change (FC) [11] of 0.17.

`CCCNCC(O)COc1ccccc1C(=O)CCc1ccccc1` (racemic) [PROPAFENONE] gave an EC50 ([3]; read-out: EC50) of 47 µM and a fold change (FC) [14] of 0.2.

For `CC(C)NCC(O)COc1cccc2ccccc12` (racemic) [PROPRANOLOL], the Activity [1] was “Active”, the “cell migration inhibition (active/not active call)” value [2] was “Active” and the EC50 ([3]; read-out: EC50) was 32 µM. For the same compound, the Activity [15] was 8%, the EC50 [16] was 37 µM and the Activity [4] was “inactive”. For the same compound, the EC50 [17] was 32 µM, the fold change (FC) [14] was 0.08 and the Activity [5] was “Active”. For the same compound, the Activity [6] was “Active”, the Activity [7] was “Active” and the Activity [8] was “Active”. The Kd [18] was 0.5 µM.

Work on `O=C1Nc2ccccc2Nc2ccccc21` yielded a ΔTm [10] of 0.6 °C, a fold change (FC) [12] of 1.12 and a fold change (FC) [11] of 0.47.

`Cn1c(=O)[nH]c2[nH]cnc2c1=O` showed a ΔTm ([10]; filed as modulator) of 1.1 °C, a fold change (FC) [12] of 1.47 and a fold change (FC) [13] of 3.3.

In the case of `NCC(O)COc1cccc2ccccc12` (centres undefined), the EC50 ([3]; read-out: EC50) is reported as 19.4 µM, the EC50 [16] is reported as 43 µM and the ΔTm ([10]; filed as agonist) is reported as 1.5 °C. The fold change (FC) [12] was 2.3, the fold change (FC) [14] was 0.07 and the fold change (FC) [11] was 0.27.

Compound `CN1CC(=O)N2[C@H](c3ccc4c(c3)OCO4)c3[nH]c4ccccc4c3C[C@@H]2C1=O` has an EC50 ([3]; read-out: EC50) of 5 µM and a fold change (FC) [14] of 0.62.

For `OC(COc1cccc2ccccc12)CN1CCCCC1` (centres undefined), the Activity [19] was “inactive”.

For `c1ccc2c3c([nH]c2c1)CNCC3` [TRYPTOLINE], the EC50 ([3]; read-out: EC50) was 74 µM, the EC50 [16] was greater than 100 µM and the fold change (FC) [9] was 2.15. For the same compound, the ΔTm ([10]; filed as agonist) was 1.2 °C, the fold change (FC) [12] was 2.2 and the fold change (FC) [14] was 0.4. It also gave a fold change (FC) [11] of 0.47.

Work on `CC(C)OCC(O)COc1cccc2ccccc12` (centres undefined) yielded an EC50 ([3]; read-out: EC50) of 83 µM and a fold change (FC) [14] of 0.29.

For `CC(C)N(C)CC(O)COc1cccc2ccccc12` (centres undefined), the EC50 ([3]; read-out: EC50) was greater than 100 µM.

`Clc1ccc(C(c2ccccc2)N2CCNCC2)cc1` (centres undefined) gave a fold change (FC) [9] of 0.57, a ΔTm [10] of -2.3 °C and a fold change (FC) [11] of 0.37.

`CC(C)NC[C@@H](O)COc1cccc2ccccc12` [DEXPROPRANOLOL] showed an EC50 ([3]; read-out: EC50) of 40 µM and a fold change (FC) [14] of 0.4.

Work on `O=C(O)CCCc1ccc(-c2ccccc2)cc1` yielded a fold change (FC) [9] of 0.41, a ΔTm [10] of -1.4 °C and a fold change (FC) [11] of 0.34.

In the case of `CC(C)NCCCOc1cccc2ccccc12`, the EC50 ([3]; read-out: EC50) is reported as 50 µM and the fold change (FC) [14] is reported as 0.42.

With `CC(=O)N1CCN(c2ccc(O)cc2)CC1` the fold change (FC) [9] was 0.86, the ΔTm [10] was 0.8 °C and the fold change (FC) [11] was 0.5.

With `CC(C)NCC(O)COc1ccnc2ccccc12` (centres undefined) the “cell migration inhibition (active/not active call)” value [2] was “inactive”, the Activity [4] was “inactive” and the Activity [20] was “inactive”. The Activity [7] was “Active”.

`NC1CCc2[nH]c3ccccc3c2C1` (centres undefined) gave an EC50 ([3]; read-out: EC50) of 67 µM, an EC50 [16] greater than 100 µM and a fold change (FC) [9] of 1.98. For the same compound, the ΔTm ([10]; filed as agonist) was 2.4 °C, the fold change (FC) [12] was 2.1 and the fold change (FC) [14] was 0.5. The fold change (FC) [11] was 0.45.
